Tests used:
[1] = test system: PA-1 ovarian cancer cells; assay: Cell growth inhibition, Sulforhodamine B assay, PA-1; type: cell-based; settings: 120 h, 5 days culture, SRB assay, read-out: Cell Line GI50 Range PA-1
[2] = test system: MDA-MB-231 breast cancer cells; assay: Cell growth inhibition, Sulforhodamine B assay, MDA-MB-231; type: cell-based; settings: Homo sapiens, 120 h, 5 days culture, SRB assay, read-out: Cell Line GI50 Range MDA-MB-231
[3] = test system: HCT116 colon cancer cells; assay: Cell growth inhibition, Sulforhodamine B assay, HCT116; type: cell-based; settings: Homo sapiens, HCT-116, 120 h, 5 days culture, SRB assay, read-out: Cell Line GI50 Range HCT116
[4] = test system: OVCAR-3 ovarian cancer cells; assay: Cell growth inhibition, Sulforhodamine B assay, OVCAR-3; type: cell-based; settings: Homo sapiens, 120 h, 5 days culture, SRB assay, read-out: Cell Line GI50 Range OVCAR-3
[5] = test system: Colon tumor initiating cells (TICs), 12 colon; assay: Colon tumor-initiating cell growth inhibition (Alamar Blue); type: cell-based; settings: 216 h, 9 days, read-out: GI50 range 12 colon
[6] = test system: MDA-MB-468 breast cancer cells; assay: Cell growth inhibition, Sulforhodamine B assay, MDA-MB-468; type: cell-based; settings: Homo sapiens, 120 h, 5 days culture, SRB assay, read-out: Cell Line GI50 Range MDA-MB-468
human TTK = biological target: T1, human TTK (Homo sapiens, UniProt P33981); assay: TTK inhibition assay (indirect ELISA); type: biochemical; settings: GST-TTK 0.68 nM, 16 μM ATP; read-out: IC50 Ranges TTK
T1 construct: amino terminal GST fusion of full length human TTK; purchased Invitrogen
T1 sequence (P33981 1-857): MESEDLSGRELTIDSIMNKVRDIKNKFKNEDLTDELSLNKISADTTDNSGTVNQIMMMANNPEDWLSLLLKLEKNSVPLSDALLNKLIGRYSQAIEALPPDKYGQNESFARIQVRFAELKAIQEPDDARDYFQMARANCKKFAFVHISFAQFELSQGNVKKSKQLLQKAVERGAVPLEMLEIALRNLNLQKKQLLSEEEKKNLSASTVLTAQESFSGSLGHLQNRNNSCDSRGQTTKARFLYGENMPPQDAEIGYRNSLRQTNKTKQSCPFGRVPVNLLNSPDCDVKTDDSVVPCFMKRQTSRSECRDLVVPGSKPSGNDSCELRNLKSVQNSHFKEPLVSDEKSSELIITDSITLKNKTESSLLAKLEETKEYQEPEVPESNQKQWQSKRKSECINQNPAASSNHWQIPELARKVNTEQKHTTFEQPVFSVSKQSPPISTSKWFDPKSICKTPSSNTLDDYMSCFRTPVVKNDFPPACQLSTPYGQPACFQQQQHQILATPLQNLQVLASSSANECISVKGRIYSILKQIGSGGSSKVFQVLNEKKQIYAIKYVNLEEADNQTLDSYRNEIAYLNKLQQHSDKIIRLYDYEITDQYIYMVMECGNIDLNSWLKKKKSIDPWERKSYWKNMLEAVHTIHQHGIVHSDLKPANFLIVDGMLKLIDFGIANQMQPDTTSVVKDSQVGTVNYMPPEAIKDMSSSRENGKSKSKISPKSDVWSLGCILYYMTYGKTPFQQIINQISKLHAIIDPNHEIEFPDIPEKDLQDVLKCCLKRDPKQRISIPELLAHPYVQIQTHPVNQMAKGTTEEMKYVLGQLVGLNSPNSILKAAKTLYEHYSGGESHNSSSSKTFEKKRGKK

[7] = test system: Ovarian TICs, 2393A ovarian; assay: Ovarian tumor-initiating cell growth inhibition (Alamar Blue); type: cell-based; settings: 144 h, 6 days, read-out: GI50 range 2393A ovarian
human PLK4 = biological target: T2, human PLK4 (Homo sapiens, UniProt O00444); assay: PLK4 inhibition assay (indirect ELISA); type: biochemical; settings: GST-PLK4 4 nM, 15 μM ATP; read-out: IC50 Ranges PLK4
T2 construct: amino terminal GST fusion of residues 1-391 of human PLK4; made in house; host or cells: E. coli
T2 sequence (O00444 1-391): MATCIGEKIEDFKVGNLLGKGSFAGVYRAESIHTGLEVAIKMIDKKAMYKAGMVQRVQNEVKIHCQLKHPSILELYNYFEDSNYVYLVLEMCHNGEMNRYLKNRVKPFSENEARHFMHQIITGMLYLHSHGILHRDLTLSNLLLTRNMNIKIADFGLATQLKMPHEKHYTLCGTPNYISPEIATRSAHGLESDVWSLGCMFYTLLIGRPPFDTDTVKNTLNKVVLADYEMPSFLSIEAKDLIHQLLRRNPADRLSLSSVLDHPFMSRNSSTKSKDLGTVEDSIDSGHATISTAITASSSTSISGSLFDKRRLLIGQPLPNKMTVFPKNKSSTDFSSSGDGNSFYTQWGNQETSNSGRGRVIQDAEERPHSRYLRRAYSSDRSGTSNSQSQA
How it was run: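 Compounds were tested either at a single 10 μM dose or across 10-point titrations (typically 0.5 to 0.001 μM), preincubated 15 min with 4 nM GST-PLK4 (human 1-391, dephosphorylated) before 15 μM ATP was added. MBP substrate phosphorylation over 30 min, pH 7.5 HEPES/MgCl2 buffer, read by HRP/TMB ELISA (450 nm). % inhibition vs. high-activity control; IC50 by logistic fit.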

HT29 colon cancer cells = assay: Cell growth inhibition, Sulforhodamine B assay, HT29; type: cell-based; settings: Homo sapiens, HT-29, 120 h, 5 days culture, SRB assay, read-out: Cell Line GI50 Range HT29
Aurora B = biological target: T3, Aurora B (Homo sapiens, UniProt Q96GD4); assay: Aurora B inhibition assay (Z-Lyte); type: biochemical; settings: 28 nM Aurora B, 128 μM ATP; read-out: IC50 Ranges Aurora B
T3 construct: purchased Invitrogen PV3970
T3 sequence (Q96GD4 whole entry): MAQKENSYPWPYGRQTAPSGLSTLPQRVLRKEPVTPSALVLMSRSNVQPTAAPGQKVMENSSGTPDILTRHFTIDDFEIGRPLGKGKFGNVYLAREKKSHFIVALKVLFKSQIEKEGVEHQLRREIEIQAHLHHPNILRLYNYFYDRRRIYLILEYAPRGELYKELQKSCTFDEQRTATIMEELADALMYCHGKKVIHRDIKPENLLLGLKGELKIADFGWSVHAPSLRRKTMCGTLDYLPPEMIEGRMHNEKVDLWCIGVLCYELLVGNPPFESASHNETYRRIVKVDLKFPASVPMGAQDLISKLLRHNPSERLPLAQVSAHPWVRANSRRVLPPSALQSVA
Description: Aurora B inhibition was determined using the Z-Lyte assay kit from Invitrogen. The assay was performed using the recommended manufacturer's instructions with 128 μM ATP and 28 nM Aurora B (Invitrogen cat #PV3970). The % inhibition values were determined according to the manufacturer's directions and IC50 values were obtained using a non-linear 4 point logistic curve fit (XLfit4, IDBS)

SMILES | GI50 [1] [µM] | GI50 [2] [µM] | GI50 [3] [µM] | GI50 [4] [µM] | GI50 [5] [µM] | GI50 [6] [µM] | IC50 (human TTK) [µM] | GI50 [7] [µM] | IC50 (human PLK4) [µM] | GI50 (HT29 colon cancer cells) [µM] | IC50 (Aurora B) [µM]
CN1CCC(Oc2ccc(-c3n[nH]c4ccc(NC(=O)C(c5cccs5)N5CCCC5)cc34)cc2)CC1 (stereo not shown) [Example A91, N-(3-(4-((1-methylpiperidin-4-yl)oxy)phenyl)-1H-indazol-5-yl)-2-(pyrrolidin-1-yl)-2-(thiophen-2-yl)acetamide] | ≤ 5 | ≤ 5 | ≤ 5 | ≤ 5 | ≤ 5 | ≤ 5 | ≤ 5 | ≤ 5 | ≤ 5 | ≤ 5 | ≤ 5
COCCN1CCC(Oc2ccc(-c3n[nH]c4ccc(C(=O)NC(c5ccccc5)C5CC5)cc34)cc2)CC1 (stereo not shown) [Example A98, N-(cyclopropyl(phenyl)methyl)-3-(4-((1-(2-methoxyethyl)piperidin-4-yl)oxy)phenyl)-1H-indazole-5-carboxamide] | ≤ 5 | ≤ 5 | ≤ 5 | ≤ 5 | ≤ 5 | ≤ 5 | ≤ 5 | ≤ 5 | ≤ 5 | ≤ 5 | ≤ 5
CN1CCC(Oc2ccc(-c3n[nH]c4ccc(C(=O)NC(c5ccsc5)C5CCCC5)cc34)cc2)CC1 (stereo not shown) [Example A110, N-(cyclopentyl(thiophen-3-yl)methyl)-3-(4-((1-methylpiperidin-4-yl)oxy)phenyl)-1H-indazol-5-carboxamide] | ≤ 5 | ≤ 5 | ≤ 5 | ≤ 5 | ≤ 5 | ≤ 5 | ≤ 5 | ≤ 5 | ≤ 5 | ≤ 5 | ≤ 5
CC[C@@H](NC(=O)c1ccc2[nH]nc(-c3ccc(OC4CCN(CCOC)CC4)cc3)c2c1)c1ccccc1Cl [Example A128, (R)—N-(1-(2-chlorophenyl)propyl)-3-(4-((1-(2-methoxyethyl)piperidin-4-yl)oxy)phenyl)-1H-indazole-5-carboxamide] | ≤ 5 | ≤ 5 | ≤ 5 | ≤ 5 | ≤ 5 | ≤ 5 | ≤ 5 | ≤ 5 | ≤ 5 | ≤ 5 | ≤ 5

Other lines, results leading:

GI50 [1] [µM] | GI50 [2] [µM] | GI50 [3] [µM] | GI50 [4] [µM] | GI50 [5] [µM] | GI50 [6] [µM] | IC50 (human TTK) [µM] | GI50 [7] [µM] | IC50 (human PLK4) [µM] | GI50 (HT29 colon cancer cells) [µM] | IC50 (Aurora B) [µM] | SMILES
≤ 5 | ≤ 5 | ≤ 5 | ≤ 5 | ≤ 5 | ≤ 5 | ≤ 5 | ≤ 5 | ≤ 5 | ≤ 5 | ≤ 5 | Cc1ccccc1C(NC(=O)c1ccc2[nH]nc(-c3ccc(OC4CCN(C)CC4)cc3)c2c1)C1CC1 (stereo not shown) [Example A132, N-(cyclopropyl(o-tolyl)methyl)-3-(4-((1-methylpiperidin-4-yl)oxy)phenyl)-1H-indazole-5-carboxamide]
≤ 5 | ≤ 5 | ≤ 5 | ≤ 5 | ≤ 5 | ≤ 5 | ≤ 5 | ≤ 5 | ≤ 5 | ≤ 5 | ≤ 5 | Cc1ccccc1C(C(=O)Nc1ccc2[nH]nc(-c3ccc(OC4CCN(C)CC4)cc3)c2c1)N1CCCC1 (stereo not shown) [Example A133, N-(3-(4-((1-methylpiperidin-4-yl)oxy)phenyl)-1H-indazol-5-yl)-2-(pyrrolidin-1-yl)-2-(o-tolyl)acetamide]
≤ 5 | ≤ 5 | ≤ 5 | 5 to 20 | ≤ 5 | ≤ 5 | ≤ 5 | ≤ 5 | ≤ 5 | ≤ 5 | – | COC[C@@H](NC(=O)c1ccc2[nH]nc(-c3ccc(OC4CCN(C)CC4)cc3)c2c1)c1ccccc1 [Example A173, (S)—N-(2-methoxy-1-phenylethyl)-3-(4-((1-methylpiperidin-4-yl)oxy)phenyl)-1H-indazole-5-carboxamide]

From US20140051679A1, “KINASE INHIBITORS AND METHOD OF TREATING CANCER WITH SAME” (UNIVERISTY HEALTH NETWORKS, priority 2011, published 2014)
